In US9663495B2 (YUHAN CORPORATION, priority 2013, dated 2017):

Experiments:
[1] = target: T1, GPR119 (Homo sapiens, UniProt Q8TDV5); assay: cAMP Accumulation Assay (GPR119 CRE-bla CHO-K1 cells, LiveBLAzer-FRET B/G); type: cell-based; conditions: (Emax of the test compound/Emax of MBX-2982)x100, 5 hours incubation
T1 construct: host or cells: CHO-K1 (GPR119 CRE-bla, doxycycline-induced)
T1 sequence (Q8TDV5 1-335): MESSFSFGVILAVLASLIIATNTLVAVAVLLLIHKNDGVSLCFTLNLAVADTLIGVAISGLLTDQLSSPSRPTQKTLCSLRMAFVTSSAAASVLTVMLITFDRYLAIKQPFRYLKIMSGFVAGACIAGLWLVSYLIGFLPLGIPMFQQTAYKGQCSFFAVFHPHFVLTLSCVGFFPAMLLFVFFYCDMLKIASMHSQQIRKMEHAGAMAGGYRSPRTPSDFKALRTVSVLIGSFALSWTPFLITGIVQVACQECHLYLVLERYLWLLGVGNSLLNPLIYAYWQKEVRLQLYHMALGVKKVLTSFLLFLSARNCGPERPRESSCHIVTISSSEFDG

[2] = system: male C57BL/6 mice; assay: Oral Glucose Tolerance Test (OGTT); type: in vivo; set-up: concentration or dose not given beside the values; conditions: fasted male C57BL/6 mice, oral administration 30 minutes before oral glucose; AUCglucose 0-120 minutes versus negative control group
Protocol: The oral glucose tolerance test of the compounds according to the present invention was carried out according to the procedures disclosed in Andrikopoulos S, Blair A R, Deluca N, Fam B C, Proietto J, Am J Physiol Endocrinol Metab. 2008, Vol 295, E1323-1332. Briefly, male C57BL/6 mice at 8 to 9 weeks of age having 20 g to 25 g of body weight (Orient Bio Inc. Korea) were allowed to acclimatize to the surroundings (temperature: 20±2° C., humidity: 40-60%, light/dark cycle: 12 hours) for 1 week. During the acclimatization, the mice were given ad libitum access to feed and water. The mice were fasted from 18 hours before the test, except for allowing free access to water. After measuring the mice′ body weights and blood sugar levels, they were divided into test groups so as to have similar blood sugar levels. The mice were orally administered with a mixture of test compound and the diluent (0.5% solution of MC1500 (Sigma)). At 30 minutes after the administration, the mice were also orally administered with 20% glucose solution in an amount of 0.1 ml per 10 g of body weight. The blood samples were taken from the tail vain at 0 (right before the administration of the glucose solution), 15, 30, 60, 90, and 120 minutes after the administration of the glucose solution; and the blood sugar levels thereof were measured with a blood glucose test meter (GlucoDr. AGM-3000, All Medicus Co. Ltd.). The graph for blood sugar level on time for each test compound was plotted from the respective blood sugar values; and then area under the curve (AUCglucose) was determined. The inhibition rate of blood sugar (%) was calculated from the following formula. Inhibition rate of blood sugar (%)=[(AUCglucose of the negative control group−AUCglucose of the test group)/AUCglucose of the negative control group]×100

[3] = target: T1, GPR119; assay: cAMP Accumulation Assay (GPR119 CRE-bla CHO-K1 cells, LiveBLAzer-FRET B/G); type: cell-based; conditions: for EC50: 5 hours incubation; for Emax (Fold): maximum activity, response ratio versus non-treated control group

Structure (SMILES)	Emax (% RR) [1]	Inhibition rate of blood sugar (%) [2]	EC50 [3]	Emax (Fold) [3]
CCCn1ncn(-c2ccc(-c3cnc(N4CCN(C(=O)OC(C)(C)C)C[C@@H]4C)c(C#N)c3)cc2F)c1=O [Example 5, (S)-tert-butyl 4-(3-cyano-5-(3-fluoro-4-(5-oxo-1-propyl-1H-1,2,4-triazol-4(5H)-yl)phenyl)pyridin-2-yl)-3-methylpiperazin-1-carboxylate]	109.1 % RR	21.9%	4 nM	2.7 Fold
CCc1cnc(N2CCN(c3ncc(-c4ccc(-n5cnn(CCN(CC)CC)c5=O)c(F)c4)cc3C#N)[C@@H](C)C2)nc1 [Example 10, (S)-5-(4-(1-(2-(diethylamino)ethyl)-5-oxo-1H-1,2,4-triazol-4(5H)-yl)-3-fluorophenyl)-2-(4-(5-ethylpyrimidin-2-yl)-2-methylpiperazin-1-yl)nicotinonitrile]	104.5 % RR	23.8%	8 nM	2.6 Fold
CCc1cnc(N2CCN(c3ncc(-c4ccc(-n5cnn(CCN6CCCC6)c5=O)c(F)c4)cc3C#N)[C@@H](C)C2)nc1 [Example 14]	125.1 % RR	18.6%	14.8 nM	3.3 Fold
CCc1cnc(N2CCN(c3ncc(-c4ccc(-n5cnn(CCN6CCOCC6)c5=O)c(F)c4)cc3C#N)[C@@H](C)C2)nc1 [Example 15, (S)-2-(4-(5-ethylpyrimidin-2-yl)-2-methylpiperazin-1-yl)-5-(3-fluoro-4-(1-(2-morpholinoethyl)-5-oxo-1H-1,2,4-triazol-4(5H)-yl)phenyl)nicotinonitrile]	124.5 % RR	21.7%	5 nM	3.5 Fold
CCc1cnc(N2CCN(c3ncc(-c4ccc(-n5cnn(CCN)c5=O)c(F)c4)cc3C#N)[C@@H](C)C2)nc1.Cl [Example 17, (S)-5-(4-(1-(2-aminoethyl)-5-oxo-1H-1,2,4-triazol-4(5H)-yl)-3-fluorophenyl)-2-(4-(5-ethylpyrimidin-2-yl)-2-methylpiperazin-1-yl)nicotinonitrile hydrochloride]	115.1 % RR	18.2%	8.2 nM	3.2 Fold
CCc1cnc(N2CCN(c3ncc(-c4ccc(-n5cnn([C@@H]6CCOC6)c5=O)c(F)c4)cc3C#N)CC2)nc1 [Example 33, (R)-2-(4-(5-ethylpyrimidin-2-yl)piperazin-1-yl)-5-(3-fluoro-4-(5-oxo-1-(tetrahydrofuran-3-yl)-1H-1,2,4-triazol-4(5H)-yl)phenyl)nicotinonitrile]	125.7 % RR	20.9%	4.4 nM	4.0 Fold
CCc1cnc(N2CCN(c3ncc(-c4ccc(-n5cnn([C@@H]6CCNC6)c5=O)c(F)c4)cc3C#N)CC2)nc1 [Example 34, (R)-2-(4-(5-ethylpyrimidin-2-yl)piperazin-1-yl)-5-(3-fluoro-4-(5-oxo-1-(pyrrolidin-3-yl)-1H-1,2,4-triazol-4(5H)-yl)phenyl)nicotinonitrile]	113.8 % RR	25.1%	8.4 nM	3.2 Fold
CCc1cnc(N2CCN(c3ncc(-c4ccc(-n5cnn(CC(=O)N6CCCC6)c5=O)c(F)c4)cc3C#N)CC2)nc1 [Example 37, 2-(4-(5-ethylpyrimidin-2-yl)piperazin-1-yl)-5-(3-fluoro-4-(5-oxo-1-(2-oxo-2-(pyrrolidin-1-yl)ethyl)-1H-1,2,4-triazol-4(5H)-yl)phenyl)nicotinonitrile]	110.0 % RR	16.5%	3.2 nM	3.1 Fold
CCc1cnc(N2CCN(c3ncc(-c4ccc(-n5cnn(CCOC)c5=O)cc4)cc3C#N)CC2)nc1 [Example 40, 2-(4-(5-ethylpyrimidin-2-yl)piperazin-1-yl)-5-(4-(1-(2-methoxyethyl)-5-oxo-1H-1,2,4-triazol-4(5H)-yl)phenyl)nicotinonitrile]	112.1 % RR	17.2%	9 nM	3.1 Fold
CCc1cnc(N2CCN(c3ncc(-c4ccc(-n5cnn([C@@H]6CCOC6)c5=O)cc4)cc3C#N)CC2)nc1 [Example 41, (R)-2-(4-(5-ethylpyrimidin-2-yl)piperazin-1-yl)-5-(4-(5-oxo-1-(tetrahydrofuran-3-yl)-1H-1,2,4-triazol-4(5H)-yl)phenyl)nicotinonitrile]	113.4 % RR	18.8%	5 nM	3.1 Fold
CCc1cnc(N2CCN(c3ncc(-c4ccc(-n5cnn(C(C)C)c5=O)c(F)c4)cc3C#N)CC2)nc1.Cl [Example 43, 2-(4-(5-ethylpyrimidin-2-yl)piperazin-1-yl)-5-(3-fluoro-4-(1-isopropyl-5-oxo-1H-1,2,4-triazol-4(5H)-yl)phenyl)nicotinonitrile hydrochloride]	130.9 % RR	25.2%	–	3.8 Fold
CC(C)c1nc(N2CCN(c3ncc(-c4ccc(-n5cnn([C@H]6CCOC6)c5=O)c(F)c4)cc3C#N)CC2)no1 [Example 47, (S)-5-(3-fluoro-4-(5-oxo-1-(tetrahydrofuran-3-yl)-1H-1,2,4-triazol-4(5H)-yl)phenyl)-2-(4-(5-isopropyl-1,2,4-oxadiazol-3-yl)piperazin-1-yl)nicotinonitrile]	141.6 % RR	32.7%	12 nM	3.2 Fold
COCCn1ncn(-c2ccc(-c3cnc(N4CCC(c5noc(C(C)C)n5)CC4)c(C#N)c3)cc2)c1=O [Example 69, 2-(4-(5-isopropyl-1,2,4-oxadiazol-3-yl)piperidin-1-yl)-5-(4-(1-(2-methoxyethyl)-5-oxo-1H-1,2,4-triazol-4(5H)-yl)phenyl)nicotinonitrile]	126.7 % RR	25.8%	16 nM	3.7 Fold
CC(C)c1nc(C2CCN(c3ncc(-c4ccc(-n5cnn([C@@H]6CCOC6)c5=O)cc4)cc3C#N)CC2)no1 [Example 70, (R)-2-(4-(5-isopropyl-1,2,4-oxadiazol-3-yl)piperidin-1-yl)-5-(4-(5-oxo-1-(tetrahydrofuran-3-yl)-1H-1,2,4-triazol-4(5H)-yl)phenyl)nicotinonitrile]	120.0 % RR	25.2%	36 nM	3.5 Fold
CC(C)c1nc(C2CCN(c3ncc(-c4ccc(-n5cnn([C@H]6CCOC6)c5=O)cc4)cc3C#N)CC2)no1 [Example 71, (S)-2-(4-(5-isopropyl-1,2,4-oxadiazol-3-yl)piperidin-1-yl)-5-(4-(5-oxo-1-(tetrahydrofuran-3-yl)-1H-1,2,4-triazol-4(5H)-yl)phenyl)nicotinonitrile]	127.3 % RR	20.4%	9.8 nM	3.8 Fold
